The text below walks through data of patent US20240025856A1, “1,2,3,4-TETRAHYDROQUINOLINE DERIVATIVES AS INHIBITORS OF THE YAP/TAZ-TEAD ACTIVATION FOR TREATING CANCER” (KATHOLIEKE UNIVERSITEIT LEUVEN, priority 2020, published 2024).

Common to all, as to format: cell-based
Experiment [1] relates to NCI-1H2052. Nature of the experiment: Mesothelioma cell line proliferation assay, H2052 (ATPlite). As to conditions: Homo sapiens, NCI-H2052, 144 h, 6 days with compound, read-out: H2025 (EC50). The procedure:
Mesothelioma cell lines, NCI-1H226 and NCI-1H2052 (all sourced from the ATCC cell culture collection) are plated in 96-well plates (Corning® 96 Well White Polystyrene Microplate clear flat bottom, white polystyrene (TC-Treated)), at 1500 cells/well in full medium (RPMI 1640 ATCC modification with L-glutamine, HEPES, Phenol Red, Sodium Pyruvate, High glucose, Low sodium bicarbonate and 10% fetal bovine serum). Cells are incubated overnight at 37° C. in an incubator with 5% C02. Then compounds, dissolved in DMSO, are added in dose-response. Cells are incubated with compound dilutions for another 6 days at 37° C. in an incubator with 5% C02. Cell viability is quantitated using the ATPlite kit (Perkin-Elmer) and the luminescence is read-out using an Envision instrument (Perkin-Elmer). The amount of relative light units produced using the ATPlite kit is used to calculated percent of inhibition.
The activities of some example compounds are depicted in the table below. The activity ranges A, B and C refer to EC50 values in the mesothelioma cell line proliferation assay as described as follows: “A”: EC50<1 μM; “B”: 1 μM s EC50≤10 μM and “C”: EC50≥10 μM; NT: not tested.
For orientation: ATP-based viability assays read luminescence as a measure of living cells.

The test system of experiment [2] is Caov-3. Nature of the experiment: Cancer cell line proliferation assay (CellTiter-Glo), Caov-3. Conditions: Homo sapiens, 144 h, Ovary, LATS2 HOM DEL, 6 days. The protocol:
(§1) All the cell lines are cultured in the media supplemented with 10-20% fetal bovine serum, in the temperature of 37° C., 5% CO2 and 95% humidity. The indicated cell lines (all sourced from the ATCC cell culture collection) are plated in 96-Well Flat Clear Bottom Black Polystyrene TC-Treated Microplates with the final cell density of 4×10^3 cells/well. Cells are incubated overnight and then compounds, dissolved in DMSO, are added in dose-response. Cells are incubated with compound dilutions for another 6 days. Cell viability is quantitated using CellTiter-Glo reagent (Perkin Elmer) and measured using an EnVision Multi Label Reader.

Experiment [3] has as its system SCC-9. The experiment is described as follows: Cancer cell line proliferation assay (CellTiter-Glo), SCC-9. As to conditions: Homo sapiens, 144 h, Head & neck (squamous), FAT1 HOM DEL, 6 days. The protocol:
as §1

Experiment [4] deals with YAP/TAZ-TEAD transcription. Nature of the experiment: Reporter gene assay for measuring the inhibition of YAP/TAZ-TEAD transcription (TEAD-responsive element luciferase reporter in Hek293T cells). Conditions: Homo sapiens, HEK-293T, 24 h, Hek293T cells transiently transfected with TEAD-responsive element luciferase reporter; 24 hours incubation. A digest of the protocol: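 Hek293T cells transiently transfected with a TEAD-responsive element luciferase reporter, plated onto pre-diluted compounds and incubated 24 h at 37 °C/5% CO2. Luminescence read after SteadyLite addition; % inhibition from RLU relative to vehicle (0%) and a positive control inhibitor (100%), giving IC50.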
A general note: Reporter assays use an easily measured gene product as a stand-in for the process of interest.

`C=CC(=O)NC1Cc2ccccc2N(c2ccc(C(F)(F)F)cc2)C1` (stereo not shown) [compound 001, N-(1-(4-(trifluoromethyl)phenyl)-1,2,3,4-tetrahydroquinolin-3-yl)acrylamide]: the EC50 in experiment [1] is under 1000 nM. In addition, the GI50 turned out to be 110 nM in experiment [2] and 50 nM in experiment [3]. For the same compound, the half-maximal inhibitory concentration (IC50) in experiment [4] is under 1000 nM.

By EC50 is commonly meant the concentration needed to bring the measured effect to its halfway point. As usually defined, the GI50 is the concentration that inhibits growth by half. A word on the IC50: it is the point on the concentration scale where inhibition reaches its midpoint.
